Experimental data taken from PMC5011490, “Effect of Tris, MOPS, and phosphate buffers on the hydrolysis of polyethylene terephthalate films by polyester hydrolases” (FEBS Open Bio, 2016).

Target: T1, TfCut2 (Thermobifida fusca, UniProt Q6A0I4)
T1 construct: gene cut2; gene without signal peptide from T. fusca KW3 genomic DNA, pET-20b(+) with pelB leader and His6 tag, E. coli BL21(DE3), purified
Experiment: PET film hydrolysis, released products by RP-HPLC; Lineweaver-Burk slope replot
Assay type: biochemical
Conditions: amorphous PET film substrate, 0.2 M sodium phosphate pH 8.0, 60 °C, 1 h; MOPS 0.05-0.075 M; competitive
Text: PET film hydrolysis, released products by RP-HPLC; Lineweaver-Burk slope replot on TfCut2

T1 sequence (Q6A0I4 41-301): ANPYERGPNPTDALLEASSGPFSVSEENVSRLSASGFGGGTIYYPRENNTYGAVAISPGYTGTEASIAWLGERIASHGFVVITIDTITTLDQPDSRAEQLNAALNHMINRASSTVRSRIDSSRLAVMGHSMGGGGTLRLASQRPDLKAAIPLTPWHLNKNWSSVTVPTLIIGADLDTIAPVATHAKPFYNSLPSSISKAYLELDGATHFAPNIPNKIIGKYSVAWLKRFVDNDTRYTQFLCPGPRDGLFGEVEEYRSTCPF

O=S(=O)(O)CCCN1CCOCC1 [MOPS, 3‐(N‐morpholino)propanesulfonic acid]
Ki: 80 mM
